From patent publication US7579488B2 (Eli Lilly and Company, priority 2003, dated 2009)
Several values for one entry are separate records, joined by “and”; a condition that tells them apart may be missing. Identical values can stand only once.

Tests used:
Format in all cases: cell-based
RXR-VDR heterodimer = biological target: T1, RXR-VDR heterodimer (Homo sapiens, UniProt P11473); test: RXR-VDR heterodimerization assay (SaOS-2 cells); conditions: Gal4-RXR-DEF/VP16-VDR-LBD luciferase reporter, several values in a cell separated by /
T1 construct: Add the Gal4-RXR-DEF and VP16-VDR-LBD; expressed in transfected cells; host or cells: SaOS-2 cells
T1 sequence (P11473 127-423 limits assumed): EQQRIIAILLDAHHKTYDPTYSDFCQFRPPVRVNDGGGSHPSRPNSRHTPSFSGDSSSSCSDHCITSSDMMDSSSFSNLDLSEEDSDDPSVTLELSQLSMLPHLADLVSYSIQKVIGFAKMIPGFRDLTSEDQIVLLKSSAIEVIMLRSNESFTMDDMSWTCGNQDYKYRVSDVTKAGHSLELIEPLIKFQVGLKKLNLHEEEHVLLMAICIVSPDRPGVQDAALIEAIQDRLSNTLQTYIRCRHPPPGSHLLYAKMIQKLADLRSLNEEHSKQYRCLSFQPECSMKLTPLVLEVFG
T1 sequence (P19793 201-462 partner limits assumed): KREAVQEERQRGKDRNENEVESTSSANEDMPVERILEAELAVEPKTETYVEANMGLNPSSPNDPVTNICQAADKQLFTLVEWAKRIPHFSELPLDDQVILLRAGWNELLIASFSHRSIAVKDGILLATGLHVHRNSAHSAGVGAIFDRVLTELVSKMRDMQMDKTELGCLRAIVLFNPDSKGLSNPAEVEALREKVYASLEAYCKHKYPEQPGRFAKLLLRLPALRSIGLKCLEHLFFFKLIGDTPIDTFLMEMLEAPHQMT
Method: 1. The RXR-VDR Heterodimer Assay:
This assay provides the VDR activity of a test compound.
(1) Materials and Method for RXR-VDR Heterodimerization Assay:
Luciferase Assay Reagent: • Use Steady-Glo Luciferase Reagent from Promega (Cat #E2550) Consists of: a. E2533 Assay Substrate, lyopholized product and b. E2543 Assay Buffer. • Thaw at room temperature • Store Cell Harvesting Aspirate media from culture flask, rinse cells with HBSS and aspirate. Add trypsin and incubate. When cells appear detached, resuspend cells in growth media. Transfer into a new flask with fresh growth media for passaging the cells. Plate well plates and two extra plates A. Cell Count Mix the cell suspension using pipette Use Hematocytometer to count the cells Load cell suspension onto the hemocytometer chamber Count cells. […] In sterile flask add cell suspension to plating media. Mix. Add cells/well. Place the cells in the incubator. Cells should be about 75% confluent prior to transfection. DAY 2: Transfection Step 1: DNA and Media Add plain DMEM media to tubes for mixing the DNA Add the Reporter gene pFR-LUC Add the Gal4-RXR-DEF and VP16-VDR-LBD Step 2: FuGENE and Media Prepare plain DMEM media in a ubes for mixing FuGENE Add FuGENE 6 Transfection Reagent Incubate Step 3: FuGENE, DNA and Media Complex Add FuGENE Media complex from step 2 to DNA Media complex from step 1 Incubate Step 4: FuGENE, DNA and Media Complex to-well plate Add FuGENE-DNA-Media complex from step 3 to each plate Incubate. […] Day 4: Luciferase Assay Read the plates after drug treatment Remove part of media from all the wells and leave remainder Add Steady-Glo Luciferase Reagent mixture/wells Incubate Count each well using a Luminescence counter, Top Count NXT by Packard
Set a delay between plates to reduce the background.

rat osteocalcin promoter = test: OCN (osteocalcin) promoter assay; conditions: RG-15 (ROS 17/2.8) cells
Method: 3. The OCN (Osteocalcin) Promoter Assay
The OCN Promoter Assay is an indicator and marker for osteoporosis. […] Preferred assay results are less than 50 nM.
(3) Materials and Method for The OCN Promoter Assay:
The activation of osteocalcin by VDR ligands was evaluated in a rat osteoblast-like cell line RG-15 (ROS 17/2.8) stably expressing rat osteocalcin promoter fused with luciferase reporter gene. […] Confluent RG-15 cells maintained in DMEM/F-12 medium (3:1) containing 5% FBS, 300 μg/ml G418 and at 37° C. under 5% CO2/95% air atmosphere were trypsinized (0.25% trypsin) and plated into white opaque 96-well cell culture plates (25000 cells/well). After 24 hr, cells (in DMEM/F-12 medium+2% FBS) were treated with various concentrations of compounds, dissolved in DMSO. The final DMSO concentration remained at 0.01% (v/v). After 48 hr treatment, the medium was removed, cells were lysed with 50 μl of lysis buffer (From Luciferase reporter assay system, Roche Diagnostics, Indianapolis, Ind.) and assayed for luciferase activity using the Luciferase Reporter Gene Assay kit from Boehringer Mannheim as per manufacturer's specifications.

KERtr cells = test: Keratinocyte proliferation assay; conditions: Homo sapiens, 72 h, BrdU incorporation, several values separated by /, read-out: Kera. Prolif. IC50
Method: 5. The Keratinocyte Proliferation Assay
This Assay is indicative for the treatment of psoriasis.
(5) The Keratinocyte Proliferation Assay:
KERtr cells (Human skin keratinocyte transformed with a retrovirus vector, obtained from ATCC) were plated in 96-well flat-bottomed plates (3000 cells/well) in 100 μl keratinocyte serum free medium supplemented with bovine pituitary extract in the absence of EGF (Life Technologies, Rockville, Md.) and incubated at 37° C. for two days. The cells were treated with various concentrations of VDR ligands (ten-fold serial dilution from 10,000 nM to 0.1 nM in triplicate), dissolved in 100 μl keratinocyte serum free medium supplemented with bovine pituitary extract in the absence of EGF and incubated at 37° C. for 72 hr. […] Potency values (IC50) values were determined as the concentration (nM) of compound that elicited a half-maximal response.

[1] = Rattus norvegicus, 48 h, 48 hr treatment, luciferase, several values separated by /
[2] = 48 hr treatment, luciferase, several values separated by /

| SMILES | EC50 (RXR-VDR heterodimer) | EC50 (rat osteocalcin promoter; [1]) [µM] | IC50 (KERtr cells) [µM] | EC50 (rat osteocalcin promoter; Rattus norvegicus, comparison compounds) [µM] | EC50 (rat osteocalcin promoter; [2]) [µM] |
| --- | --- | --- | --- | --- | --- |
| CCC(CC)(c1ccc(OCC(=O)C(C)(C)C)c(C)c1)c1cc2cc(C(=O)N(C)CC(=O)O)ccc2o1 | 0.009 µM | 0.007 | 0.01 | – | – |
| Cc1cc(C2(c3ccc(OCC(=O)C(C)(C)C)c(C)c3)CCCCC2)ccc1OCC(=O)C(C)(C)C [CC, 1-(4-{1-[4-(3,3-Dimethyl-2-oxo-butoxy)-3-methyl-phenyl]-cyclohexyl}-2-methyl-phenoxy)-3,3-dimethyl-butan-2-one, reference compound] | – | – | – | 2.68 | – |
| CCC(CC)(c1ccc(OCC2(C(C)(C)C)OCCO2)c(C)c1)c1cc2cc(C(=O)O)ccc2o1 [Ex 15, 2-{1-[4-(2-tert-Butyl-[1,3]dioxolan-2-ylmethoxy)-3-methyl-phenyl]-1-ethyl-propyl}-benzofuran-5-carboxylic acid] | 1.35 µM and 0.627 µM | 0.634 | – | – | – |
| CCC(CC)(c1ccc(OCC2(C(C)(C)C)OCCO2)c(C)c1)c1cc2cc(C(=O)NCC(=O)O)ccc2o1 [Ex 16, [(2-{1-[4-(2-tert-butyl-[1,3]dioxolan-2-ylmethoxy)-3-methyl-phenyl]-1-ethyl-propyl}-benzofuran-5-carbonyl)-amino]-acetic acid] | 0.57 µM and 0.071 µM | 0.027 | – | – | 0.044 |
| CCC(CC)(c1ccc(OCC(O)C(C)(C)C)c(C)c1)c1cc(C)c2oc(C(=O)O)cc2c1 (stereo not drawn) [Ex 22, 5-{1-Ethyl-1-[4-(2-hydroxy-3,3-dimethyl-butoxy)-3-methyl-phenyl]-propyl}-7-methyl-benzofuran-2-carboxylic acid] | 0.027 µM | 0.001 | 0.109 | – | – |
| CCC(CC)(c1ccc(OCC2(C(C)(C)C)OCCO2)c(C)c1)c1cc(C)c2oc(C(=O)O)cc2c1 [Ex 23, 5-{1-[4-(2-tert-Butyl-[1,3]dioxolan-2-ylmethoxy)-3-methyl-phenyl]-1-ethylpropyl}-7-methyl-benzofuran-2-carboxylic acid] | 0.66 µM and 0.32 µM | 0.127 | – | – | 0.088 |
| CCC(CC)(c1ccc(OCC2(C(C)(C)C)OCCO2)c(C)c1)c1cc(C)c2oc(C(=O)NCC(=O)O)cc2c1 [Ex 24, [(5-{1-[4-(2-tert-butyl-[1,3]dioxolan-2-ylmethoxy)-3-methyl-phenyl]-1-ethyl-propyl}-7-methyl-benzofuran-2-carbonyl)-amino]-acetic acid] | 0.851 µM | 0.431 | – | – | – |
| CCC(CC)(c1ccc(OCC2(C(C)(C)C)OCCO2)c(C)c1)c1cc(C)c2oc(C(=O)N(C)C)cc2c1 [Ex 25, 5-{1-[4-(2-tert-Butyl-[1,3]dioxolan-2-ylmethoxy)-3-methyl-phenyl]-1-ethyl-propyl}-7-methyl-benzofuran-2-carboxylic acid dimethylamide] | 0.067 µM | 1 | 1 | – | – |
| CCC(CC)(c1ccc(OCC(=O)C(C)(C)C)c(C)c1)c1cc(C)c2oc(C(=O)N(C)C)cc2c1 [Ex 26, 5-{1-[4-(3,3-Dimethyl-2-oxo-butoxy)-3-methyl-phenyl]-1-ethyl-propyl}-7-methyl-benzofuran-2-carboxylic acid dimethylamide] | – | 0.017 | – | – | – |
| CCC(CC)(c1ccc(OCC(O)C(C)(C)C)c(C)c1)c1cc(C)c2oc(C(=O)N(C)C)cc2c1 (stereo not drawn) [Ex 27, 5-{1-Ethyl-1-[4-(2-hydroxy-3,3-dimethyl-butoxy)-3-methyl-phenyl]-propyl}-7-methyl-benzofuran-2-carboxylic acid dimethylamide] | 0.154 µM and 0.051 µM | 0.009 | > 1 | – | 0.017 |
| CCC(CC)(c1ccc(OCC(O)C(C)(C)C)c(C)c1)c1cc(C)c2oc(C(=O)NCC(=O)O)cc2c1 (stereo not drawn) [Ex 29, [(5-{1-Ethyl-1-[4-(2-hydroxy-3,3-dimethyl-butoxy)-3-methyl-phenyl]-propyl}-7-methyl-benzofuran-2-carbonyl)-amino]-acetic acid] | 0.071 µM | 0.003 | 0.414 | – | – |
| CCC(CC)(c1ccc(OCC(=O)C(C)(C)C)c(C)c1)c1ccc2oc(C(=O)N(C)C)c(C)c2c1 [Ex 36, 5-{1-[4-(3,3-dimethyl-2-oxo-butoxy)-3-methyl-phenyl]-1-ethyl-propyl}-3-methyl-benzofuran-2-carboxylic acid dimethylamide] | 0.536 µM | 0.21 | – | – | – |
| CCC(CC)(c1ccc(OCC(=O)C(C)(C)C)c(C)c1)c1cc2ccc(OS(C)(=O)=O)cc2o1 [Ex 40, methanesulfonic acid 2-{1-[4-(3,3-dimethyl-2-oxo-butoxy)-3-methyl-phenyl]-1-ethyl-propyl}-benzofuran-6-yl ester] | 0.08 µM | – | – | – | – |
| CCC(CC)(c1ccc(OCC(=O)C(C)(C)C)c(C)c1)c1cc2cc(C(=O)OC)ccc2o1 [Ex. 1] | – | 0.001 | 0.071 | – | – |
| CCC(CC)(c1ccc(OCC(O)C(C)(C)C)c(C)c1)c1cc2cc(C(=O)N(C)C)ccc2o1 (stereo not drawn) [Ex. 6, 2-{1-Ethyl-1-[4-(2-hydroxy-3,3-dimethyl-butoxy)-3-methyl-phenyl]-propyl}-benzofuran-5-carboxylic acid dimethylamide] | 0.41 µM and 0.079 µM | 0.068 | – | – | 0.047 |
| CCC(CC)(c1ccc(OCC(=O)C(C)(C)C)c(C)c1)c1cc2cc(C(=O)NC(C)(C)C(=O)O)ccc2o1 [Ex. 10, 2-[(2-{1-[4-(3,3-Dimethyl-2-oxo-butoxy)-3-methyl-phenyl]-1-ethyl-propyl}-benzofuran-5-carbonyl)-amino]-2-methyl-propionic acid] | 0.235 µM | 0.275 | 0.215 | – | – |
